Experimental findings from patent US10993439B2, “Mesoionic imidazopyridines as insecticides” (BAYER AKTIENGESELLSCHAFT, priority 2017, dated 2021) are described below.

Data set [1] is described as follows: log P by HPLC on reversed-phase column (EEC directive 79/831 Annex V.A8). The data set is classed as physicochemical. Particulars: reversed-phase column (C18), 43° C., calibration with unbranched alkan-2-ones. How it is done: The log P values reported in the tables and preparation examples above were determined in accordance with EEC directive 79/831 Annex V.A8 by HPLC (High Performance Liquid Chromatography) using a reversed-phase column (C18). Temperature 43° C. The calibration is effected with unbranched alkan-2-ones (having 3 to 16 carbon atoms), for which the log P values are known.

In data set [2] the test system is Myzus persicae. Nature of the data set: Myzus persicae oral test. The data set is classed as in vivo. Particulars: application rate 4 ppm; mixed population of green peach aphid; after 5 days. How it is done:
Solvent: 100 parts by weight of acetone
The plates are then sealed with parafilm which can be pierced by a mixed population of the green peach aphid (Myzus persicae) located in a second microtiter plate in order to take up the solution.
(§1) After 5 days, the efficacy in % is determined. 100% means that all the aphids have been killed; 0% means that none of the aphids have been killed.

Data set [3] concerns Ctenocephalides felis. Put plainly: Ctenocephalides felis in vitro contact test with adult cat fleas. The data set is classed as in vivo. Conditions: application rate 5 μg/cm^2 (=500 g of ai/ha), after 48 h. How it is done:
For the coating of the test tubes, 9 mg of active compound are first dissolved in 1 ml of acetone p.a. and then diluted to the desired concentration with acetone p.a. 250 μl of the solution are distributed homogeneously on the inner walls and the base of a 25 ml test tube by turning and rocking on an orbital shaker (rocking rotation at 30 rpm for 2 h). With 900 ppm active compound solution and internal surface 44.7 cm^2, given homogeneous distribution, an area-based dose of 5 μg/cm^2 is achieved.
After the solvent has evaporated off, the tubes are populated with 5-10 adult cat fleas (Ctenocephalides felis), sealed with a perforated plastic lid and incubated in a horizontal position at room temperature and ambient humidity. After 48 h, efficacy is determined. To this end, the tubes are stood upright and the fleas are knocked to the base of the tube. Fleas which remain motionless at the base or are moved in an uncoordinated manner are considered to be dead or moribund.
100% efficacy means that all the fleas were dead or moribund. 0% efficacy means that no fleas were harmed.

The subject of data set [4] is Myzus persicae. Put plainly: Myzus persicae spray test. The data set is classed as in vivo. Conditions: application rate 500 g/ha; Chinese cabbage leaf discs, all stages of green peach aphid; after 5 days. How it is done: (§2) Solvents: 78 parts by weight of acetone • • 1.5 parts by weight of dimethylformamide
(§3) Emulsifier: alkylaryl polyglycol ether
(§4) To produce a suitable preparation of active compound, 1 part by weight of active compound is dissolved using the stated parts by weight of solvent and made up with water containing an emulsifier concentration of 1000 ppm until the desired concentration is attained. To produce further test concentrations, the preparation is diluted with emulsifier-containing water.
Discs of Chinese cabbage leaves (Brassica pekinensis) infested by all stages of the green peach aphid (Myzus persicae) are sprayed with an active compound preparation of the desired concentration.
as §1

Data set [5] relates to Diabrotica balteata. Nature of the data set: Diabrotica balteata spray test. The data set is classed as in vivo. Conditions: application rate 160 μg/well; beetle larvae on germinated wheat grains; after 7 days. The procedure:
as §2, §3, §4
Preswollen wheat grains (Triticum aestivum) are incubated in a multiwell plate filled with agar and a little water for one day (5 seed grains per well). The germinated wheat grains are sprayed with an active compound preparation of the desired concentration. Subsequently, each well is infested with 10-20 Diabrotica balteata beetle larvae.
After 7 days, the efficacy in % is determined. 100% means that all wheat plants have grown as in the untreated non-infested control; 0% means that no wheat plant has grown.

As a reminder, the chromatographic logP is a lipophilicity value derived from retention on a column.

For `COC(=O)c1c([O-])n(CCC#N)c2cccc[n+]12` [1-(2-cyanoethyl)-3-methoxycarbonylimidazo[1,2-a]pyridin-4-ium-2-olate], the chromatographic logP in data set [1] was 0.39.
As for `COC(=O)c1c([O-])n(CC(F)(F)F)c2cccc[n+]12` [3-methoxycarbonyl-1-(2,2,2-trifluoroethyl)imidazo[1,2-a]pyridin-4-ium-2-olate], in data set [1], the chromatographic logP is 1.01.
`N#CCCn1c([O-])c(C(=O)c2cccc(C(F)(F)F)c2)[n+]2ccccc12` [I-004, 1-(2-Cyanoethyl)-3-[3-(trifluoromethyl)benzoyl]imidazo[1,2-a]pyridin-4-ium-2-olate] displayed a chromatographic logP in data set [1] of 1.35. Moreover, the “efficacy (aphids killed)” value in data set [2] is given as 100%.
With `N#CCCn1c([O-])c(C(=O)Nc2c(Cl)cccc2Cl)[n+]2ccccc12` [I-016, 1-(2-Cyanoethyl)-3-[(2,6-dichlorophenyl)carbamoyl]imidazo[1,2-a]pyridin-4-ium-2-olate], in data set [1], the chromatographic logP came out at 1.81. For the same compound, in data set [3], the “efficacy (fleas dead or moribund)” value is given as 100%. Besides, the “efficacy (aphids killed)” value in data set [4] amounted to 100%.
`Cc1ccc[n+]2c(C(=O)C(F)(F)F)c([O-])n(CCC#N)c12` [I-027, 1-(2-Cyanoethyl)-8-methyl-3-(2,2,2-trifluoroacetyl)imidazo[1,2-a]pyridin-4-ium-2-olate] had a chromatographic logP in data set [1] of 1.35.
With `O=C(c1c([O-])n(CC(F)(F)F)c2cccc[n+]12)C(F)(F)F` [I-047, 3-(2,2,2-trifluoroacetyl)-1-(2,2,2-trifluoroethyl)imidazo[1,2-a]pyridin-4-ium-2-olate], the “efficacy (wheat plants grown as in untreated non-infested control)” value in data set [5] worked out at 100%. In data set [1], this compound yielded a chromatographic logP of 1.79. Further, the “efficacy (fleas dead or moribund)” value in data set [3] came to 80%.
As for `COC(=O)C(=O)c1c([O-])n(CC(F)(F)F)c2cccc[n+]12` [I-051, 3-(2-Methoxy-2-oxoacetyl)-1-(2,2,2-trifluoroethyl)imidazo[1,2-a]pyridin-4-ium-2-olate], the chromatographic logP in data set [1] was determined as 1.18. For the same compound, the “efficacy (aphids killed)” value in data set [2] is on record as 100%.
Regarding `N#CCCn1c([O-])c(C(=O)CCl)[n+]2ccccc12` [I-084, 3-(2-Chloroacetyl)-1-(2-cyanoethyl)imidazo[1,2-a]pyridin-4-ium-2-olate], the chromatographic logP in data set [1] stood at 0.8.
Regarding `CC1(OC(=O)C(=O)c2c([O-])n(CCC#N)c3cccc[n+]23)CC1` [I-089, 1-(2-Cyanoethyl)-3-[2-(1-methylcyclopropoxy)-2-oxo-acetyl]imidazo[1,2-a]pyridin-4-ium-2-olate], the chromatographic logP in data set [1] turned out to be 1.33. In data set [4], the “efficacy (aphids killed)” value is given as 90%.
`CO/N=C/C(=O)c1c([O-])n(CCC#N)c2cccc[n+]12` [I-094, 1-(2-Cyanoethyl)-3-[(2E)-2-methoxyiminoacetyl]imidazo[1,2-a]pyridin-4-ium-2-olate] yielded a chromatographic logP in data set [1] of 0.73. Further, the “efficacy (aphids killed)” value in data set [2] amounted to 100%.
For the compound `Cc1ccc[n+]2c(C(=O)CCl)c([O-])n(CCC#N)c12` [I-095, 3-(2-Chloroacetyl)-1-(2-cyanoethyl)-8-methyl-imidazo[1,2-a]pyridin-4-ium-2-olate], in data set [1], the chromatographic logP came out at 0.8.
